From ChEMBL document CHEMBL1126536, “Synthesis and antimalarial evaluation of 2,3,5-trioxabicyclo[2.2.3]nonane, a model for the putative pharmacophore of artemisinin” (Bioorg Med Chem Lett, 1993)
≈ marks a conversion by molar mass, not a printed value.

Legend:
Plasmodium falciparum [1] = experiment: (§1) Inhibitory concentration against chloroquine-sensitive Plasmodium falciparum D-8; format: functional, organism-based
Plasmodium falciparum [2] = experiment: as §1; format: functional
Plasmodium falciparum [3] = experiment: (§2) Inhibitory concentration against […] Plasmodium falciparum W-2; format: functional
Plasmodium falciparum [4] = experiment: as §2; format: functional, organism-based
Plasmodium falciparum [5] = experiment: Inhibitory concentration against […] Plasmodium falciparum W2; format: functional
[6] = Plasmodium falciparum, read-out: IC50
[7] = Plasmodium falciparum, read-out: IC10
[8] = Plasmodium falciparum, read-out: IC90

SMILES	IC50 (Plasmodium falciparum [1]; [6]) [µg/mL]	IC10 (Plasmodium falciparum [2]; [7]) [µg/mL]	IC90 (Plasmodium falciparum [2]; [8]) [µg/mL]	IC10 (Plasmodium falciparum [3]) [µg/mL]	IC50 (Plasmodium falciparum [4]) [µg/mL]	IC90 (Plasmodium falciparum [5]; [8]) [µg/mL]	IC50 (Plasmodium falciparum [1]) [µg/mL]	IC10 (Plasmodium falciparum [2]) [µg/mL]	IC90 (Plasmodium falciparum [2]) [µg/mL]	IC90 (Plasmodium falciparum [5]) [µg/mL]	IC10 (Plasmodium falciparum [3]; [7]) [µg/mL]	IC50 (Plasmodium falciparum [4]; [6]) [µg/mL]
C1CC2COC(C1)OO2 (stereo unspecified)	2.45 (≈ 18.8 µM)	1.34 (≈ 10.3 µM)	4.47 (≈ 34.3 µM)									
COC1CCCC(OO)CO1 (single isomer, unassigned; isomer A)	7.49 (≈ 46.2 µM)	2.46 (≈ 15.2 µM)	22.8 (≈ 141 µM)	3.33249 (≈ 20.5 µM)	6.52488 (≈ 40.2 µM)	12.8 (≈ 78.8 µM)						
COC1CCCC(OO)CO1 (stereo in doubt)				11.4131 (≈ 70.4 µM)	15.45681 (≈ 95.3 µM)		10.0532 (≈ 62 µM)	2.65375 (≈ 16.4 µM)	38.08448 (≈ 235 µM)	20.93322 (≈ 129 µM)		
C[C@@H]1CC[C@H]2[C@@H](C)C(=O)O[C@@H]3O[C@@]4(C)CC[C@@H]1[C@]32OO4 [ARTEMISININ]	0.00083 (≈ 0.00294 µM)	0.00032 (≈ 0.00113 µM)	0.00213 (≈ 0.00754 µM)			0.00105 (≈ 0.00372 µM)					0.00049 (≈ 0.00174 µM)	0.00072 (≈ 0.00255 µM)
CCN(CC)CCCC(C)Nc1ccnc2cc(Cl)ccc12 (stereo unspecified) [CHLOROQUINE]		0.00201 (≈ 0.00628 µM)	0.00361 (≈ 0.0113 µM)			0.0931 (≈ 0.291 µM)					0.0527 (≈ 0.165 µM)	
OC(c1cc(C(F)(F)F)nc2c(C(F)(F)F)cccc12)C1CCCCN1 (stereo unspecified) [MEFLOQUINE]	0.00686 (≈ 0.0181 µM)	0.00122 (≈ 0.00322 µM)	0.0385 (≈ 0.102 µM)			0.00373 (≈ 0.00986 µM)					0.00117 (≈ 0.00309 µM)	0.00209 (≈ 0.00552 µM)
